Results as given in ChEMBL document CHEMBL1201862, “PubChem BioAssay data set” (2004).
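Protocol summary: plate cells (96-well), add compound at 5 concentrations, incubate 48 h, interpolate endpoints linearly. GI50: concentration for 50% inhibition of growth.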 Active and inactive are the calls of the source. Cut-off read from the data, not from the text of the source: active = GI50 up to about 1.1 µM and inactive = higher.

Assays:
Experiment in all cases: growth of human tumour cells (NCI), 48 h
A549 = system: A549
NCI-H226 = system: NCI-H226
OVCAR-4 = system: OVCAR-4
SF-539 = system: SF-539
M14 = system: M14
SK-MEL-28 = system: SK-MEL-28
OVCAR-5 = system: OVCAR-5
HCT-116 = system: HCT-116
NCI-H522 = system: NCI-H522
HOP-92 = system: HOP-92
SNB-19 = system: SNB-19
CCRF-CEM = system: CCRF-CEM
RXF 393 = system: RXF 393
UACC-62 = system: UACC-62
HT-29 = system: HT-29
K562 = system: K562
SK-MEL-5 = system: SK-MEL-5
LOX IMVI = system: LOX IMVI
KM12 = system: KM12
A498 = system: A498

Compound	GI50 (A549)	GI50 (NCI-H226)	GI50 (OVCAR-4)	GI50 (SF-539)	GI50 (M14)	GI50 (SK-MEL-28)	GI50 (OVCAR-5)	GI50 (HCT-116)	GI50 (NCI-H522)	GI50 (HOP-92)	GI50 (SNB-19)	GI50 (CCRF-CEM)	GI50 (RXF 393)	GI50 (UACC-62)	GI50 (HT-29)	GI50 (K562)	GI50 (SK-MEL-5)	GI50 (LOX IMVI)	GI50 (KM12)	GI50 (A498)
O=C(Nc1ccc(Cl)cc1)c1cc2cc(/N=N/c3ccccc3Cl)ccc2oc1=O	29.2 µM (inactive)	22.3 µM (inactive)	22 µM (inactive)	14 µM (inactive)	15.5 µM (inactive)	15.9 µM (inactive)	44.6 µM (inactive)	11.2 µM (inactive)	21.7 µM (inactive)	18.9 µM (inactive)	27.5 µM (inactive)	2.01 µM (inactive)	46.9 µM (inactive)	8.39 µM (inactive)	15.2 µM (inactive)	5.28 µM (inactive)	22.2 µM (inactive)			
CCOC(=O)C(O)(NC(=O)c1ccccc1F)C(F)(F)F (stereo not given)	> 100 µM (inactive)	> 100 µM (inactive)	> 100 µM (inactive)	> 100 µM (inactive)	> 100 µM (inactive)	> 100 µM (inactive)	> 100 µM (inactive)	> 100 µM (inactive)	> 100 µM (inactive)	> 100 µM (inactive)	> 100 µM (inactive)	> 100 µM (inactive)	> 100 µM (inactive)	> 100 µM (inactive)	> 100 µM (inactive)	> 100 µM (inactive)	> 100 µM (inactive)	> 100 µM (inactive)	> 100 µM (inactive)	
COc1cc([N+](=O)[O-])ccc1N1C(=O)C2c3[nH]c4ccccc4c3C3CCC(C(C)(C)C)CC3C2C1=O (stereo not given)	> 100 µM (inactive)	> 100 µM (inactive)	17.2 µM (inactive)	62.8 µM (inactive)	13.6 µM (inactive)	9.12 µM (inactive)	80.5 µM (inactive)	44.5 µM (inactive)	42.4 µM (inactive)	22 µM (inactive)		21.8 µM (inactive)		19.6 µM (inactive)	88.9 µM (inactive)		40.9 µM (inactive)	18.5 µM (inactive)	> 100 µM (inactive)	> 100 µM (inactive)
CCOC(=O)C1=C(C)NC(=O)N([N+](=O)[O-])C1c1ccccc1C(F)(F)F (stereo not given)	> 100 µM (inactive)	> 100 µM (inactive)	27.2 µM (inactive)	28 µM (inactive)	43.5 µM (inactive)	24.8 µM (inactive)	> 100 µM (inactive)	35.7 µM (inactive)		> 100 µM (inactive)	> 100 µM (inactive)	26.6 µM (inactive)	61 µM (inactive)	49.4 µM (inactive)	75.2 µM (inactive)	72.6 µM (inactive)	42.3 µM (inactive)	31 µM (inactive)		> 100 µM (inactive)
CCOC(=O)C1=NN(c2ccc(C)cc2)C2=CC(C)=NN(C)C(=S)N21	70.6 µM (inactive)		> 100 µM (inactive)	64 µM (inactive)	> 100 µM (inactive)	> 100 µM (inactive)	88.5 µM (inactive)	31.1 µM (inactive)	12.2 µM (inactive)	> 10 µM (inactive)	> 100 µM (inactive)	> 100 µM (inactive)	12.6 µM (inactive)	31.9 µM (inactive)	> 100 µM (inactive)	> 100 µM (inactive)	> 100 µM (inactive)	26.9 µM (inactive)	> 100 µM (inactive)	
CSc1nc(NC2OCC(OC(C)=O)C(OC(C)=O)C2OC(C)=O)c(/N=C(\C)C(C)=O)c(=O)[nH]1 (stereo not given)	> 100 µM (inactive)	0.164 µM (active)	> 100 µM (inactive)	> 100 µM (inactive)	> 100 µM (inactive)	> 100 µM (inactive)	> 100 µM (inactive)	> 100 µM (inactive)		> 100 µM (inactive)	> 100 µM (inactive)	> 100 µM (inactive)	> 100 µM (inactive)		> 100 µM (inactive)	> 100 µM (inactive)	> 100 µM (inactive)	> 100 µM (inactive)	> 100 µM (inactive)	> 100 µM (inactive)
COc1ccc([C@H]2c3cc4c(cc3OC(O)(CO)[C@H]2C(=O)O)OCO4)c(OC)c1.COc1ccc([C@H]2c3cc4c(cc3OC3(O)COC(=O)[C@@H]23)OCO4)c(OC)c1 (stereo not given in full)	> 100 µM (inactive)	> 100 µM (inactive)	> 100 µM (inactive)	> 100 µM (inactive)	> 100 µM (inactive)	35.8 µM (inactive)	> 100 µM (inactive)	> 100 µM (inactive)		> 100 µM (inactive)	> 100 µM (inactive)	37.3 µM (inactive)	> 100 µM (inactive)	41.5 µM (inactive)	> 100 µM (inactive)	71.1 µM (inactive)	> 100 µM (inactive)	95.5 µM (inactive)	> 100 µM (inactive)	> 100 µM (inactive)
O=Nn1c2ccccc2c2cc([N+](=O)[O-])ccc21	19.9 µM (inactive)		16.8 µM (inactive)	20.3 µM (inactive)	20 µM (inactive)	18.5 µM (inactive)	16.5 µM (inactive)	13.9 µM (inactive)	10.9 µM (inactive)	14.3 µM (inactive)	20.7 µM (inactive)	14.3 µM (inactive)	16.4 µM (inactive)	16 µM (inactive)	18 µM (inactive)	11.1 µM (inactive)	30.5 µM (inactive)	14.7 µM (inactive)	17.5 µM (inactive)	12.4 µM (inactive)
O=C(Nc1ccc2[nH]c3c(-c4ccccc4)nccc3c2c1)c1ccccc1[N+](=O)[O-]	4.88 µM (inactive)	2.3 µM (inactive)	36.9 µM (inactive)	1.37 µM (inactive)	2.99 µM (inactive)	4.95 µM (inactive)	2.17 µM (inactive)	5.71 µM (inactive)		3.56 µM (inactive)	5.58 µM (inactive)	5.93 µM (inactive)	1.83 µM (inactive)		1.85 µM (inactive)	4.06 µM (inactive)		2.92 µM (inactive)	3.97 µM (inactive)	3.24 µM (inactive)
COc1ccc(C(=O)C2CC3(CCC2(O)c2ccc(OC)cc2)CC(=O)Nc2ccccc2C3=O)cc1 (stereo not given)	> 100 µM (inactive)	> 100 µM (inactive)	1.55 µM (inactive)	> 100 µM (inactive)	> 100 µM (inactive)		> 100 µM (inactive)	28.4 µM (inactive)		0.5 µM (active)		4.38 µM (inactive)	> 100 µM (inactive)	> 100 µM (inactive)	> 100 µM (inactive)	> 100 µM (inactive)	4.98 µM (inactive)	> 100 µM (inactive)		> 100 µM (inactive)
Oc1nc2ccccc2c2oc3ccccc3c12	> 100 µM (inactive)	> 100 µM (inactive)	> 100 µM (inactive)	> 100 µM (inactive)	> 100 µM (inactive)	> 100 µM (inactive)			> 100 µM (inactive)	23.2 µM (inactive)	> 100 µM (inactive)	> 100 µM (inactive)	82 µM (inactive)	> 100 µM (inactive)	> 100 µM (inactive)	> 100 µM (inactive)	> 100 µM (inactive)		> 100 µM (inactive)	> 100 µM (inactive)
